Non-standard residues stand in square brackets, D forms with d. Residues, ends and D or L forms follow the SMILES beside them. *: point of attachment. Lys(Me,2-norbornyl) = CN(CCCC[C@H](N)C(=O)O)C1CC2CCC1C2; Benzoyl(4-tBu) = CC(C)(C)c1ccc(C(=O)*)cc1; Cbz = O=C(OCc1ccccc1)*; Boc = CC(C)(C)OC(=O)*; CH2F = FC*
Legend:
[1] = molecular target: Histone-arginine methyltransferase CARM1 (Homo sapiens, UniProt Q86X55); assay: Affinity Biochemical interaction: (enzymatic assay (inhibition of methyl transfer from radiolabelled substrate [3H]SAM to peptide)) EUB0002245aCl CARM1; format: functional; design: mode of action Inhibitor, recommended concentration 1 uM
Histone-arginine methyltransferase CARM1, sequence (Q86X55 whole entry): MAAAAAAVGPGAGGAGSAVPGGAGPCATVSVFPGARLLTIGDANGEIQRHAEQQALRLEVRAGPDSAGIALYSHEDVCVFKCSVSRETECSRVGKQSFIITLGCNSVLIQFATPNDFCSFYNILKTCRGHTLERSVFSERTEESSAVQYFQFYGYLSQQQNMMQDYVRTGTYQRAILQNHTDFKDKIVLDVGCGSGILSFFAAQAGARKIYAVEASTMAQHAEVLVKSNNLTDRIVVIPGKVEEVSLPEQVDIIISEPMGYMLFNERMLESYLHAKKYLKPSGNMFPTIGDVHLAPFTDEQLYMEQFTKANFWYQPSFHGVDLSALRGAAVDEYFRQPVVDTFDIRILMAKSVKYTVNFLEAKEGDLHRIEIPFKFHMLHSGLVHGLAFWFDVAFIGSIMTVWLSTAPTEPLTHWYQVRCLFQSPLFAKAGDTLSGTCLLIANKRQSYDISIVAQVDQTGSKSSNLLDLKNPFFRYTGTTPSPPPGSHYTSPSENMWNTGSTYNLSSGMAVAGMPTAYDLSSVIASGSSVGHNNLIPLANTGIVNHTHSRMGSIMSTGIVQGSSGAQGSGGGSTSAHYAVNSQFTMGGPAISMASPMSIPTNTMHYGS

[2] = molecular target: Protein arginine N-methyltransferase 6 (Homo sapiens, UniProt Q96LA8); assay: Affinity Biochemical interaction: (enzymatic assay (inhibition of methyl transfer from radiolabelled substrate [3H]SAM to peptide)) EUB0002245aCl PRMT6; format: functional; design: mode of action Inhibitor, recommended concentration 1 uM
Protein arginine N-methyltransferase 6, sequence (Q96LA8 whole entry): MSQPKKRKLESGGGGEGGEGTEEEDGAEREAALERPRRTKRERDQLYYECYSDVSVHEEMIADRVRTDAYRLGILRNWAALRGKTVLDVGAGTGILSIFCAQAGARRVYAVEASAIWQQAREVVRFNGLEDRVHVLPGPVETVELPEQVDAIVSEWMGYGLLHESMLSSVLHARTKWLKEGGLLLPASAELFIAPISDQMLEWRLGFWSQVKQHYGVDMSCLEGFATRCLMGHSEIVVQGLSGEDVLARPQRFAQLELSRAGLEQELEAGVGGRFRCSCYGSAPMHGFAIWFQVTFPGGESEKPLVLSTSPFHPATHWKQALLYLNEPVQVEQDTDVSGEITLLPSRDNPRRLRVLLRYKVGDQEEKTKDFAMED

[3] = molecular target: Protein arginine N-methyltransferase 8 (Homo sapiens, UniProt Q9NR22); assay: Affinity Biochemical interaction: (enzymatic assay (inhibition of methyl transfer from radiolabelled substrate [3H]SAM to peptide)) EUB0002245aCl PRMT8; format: functional; design: mode of action Inhibitor, recommended concentration 1 uM
Protein arginine N-methyltransferase 8, sequence (Q9NR22 whole entry): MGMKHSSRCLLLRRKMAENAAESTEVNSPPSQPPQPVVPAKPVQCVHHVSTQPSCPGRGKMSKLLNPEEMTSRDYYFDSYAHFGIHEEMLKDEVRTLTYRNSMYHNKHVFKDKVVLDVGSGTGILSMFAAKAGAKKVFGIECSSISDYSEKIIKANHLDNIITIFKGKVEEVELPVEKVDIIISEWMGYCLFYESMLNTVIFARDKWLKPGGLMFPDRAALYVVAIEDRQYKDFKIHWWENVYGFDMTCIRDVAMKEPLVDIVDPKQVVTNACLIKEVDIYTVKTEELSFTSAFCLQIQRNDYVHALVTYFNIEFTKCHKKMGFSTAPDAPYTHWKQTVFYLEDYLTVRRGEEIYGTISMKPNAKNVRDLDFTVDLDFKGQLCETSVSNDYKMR

Caspase-5 = Caspase-5 (Homo sapiens, UniProt P51878); assay: Affinity Biochemical interaction: (enzymatic assay (fluorogenic substrate cleavage)) EUB0002202a CASP5; format: functional; design: mode of action Inhibitor, recommended concentration 1 uM
[4] = molecular target: T1, WD repeat-containing protein 5 (Homo sapiens, UniProt P61964); assay: Affinity Biochemical interaction: (Fluorescence polarisation anisotropy) EUB0002166aAD WDR5; format: functional; design: mode of action Inhibitor, recommended concentration 1 uM
[5] = molecular target: T1, WD repeat-containing protein 5; assay: Affinity Biochemical interaction: (TR-FRET) EUB0002166aAD WDR5; format: functional; design: mode of action Inhibitor, recommended concentration 1 uM
Caspase-1 = Caspase-1 (Homo sapiens, UniProt P29466); assay: Affinity Biochemical interaction: (enzymatic assay (fluorogenic substrate cleavage)) EUB0002190aAD CASP1; format: functional; design: mode of action Inhibitor, recommended concentration 1 uM
Caspase-3 [6] = molecular target: T2, Caspase-3 (Homo sapiens, UniProt P42574); assay: Affinity Biochemical interaction: (enzymatic assay (fluorogenic substrate cleavage)) EUB0002190aAD CASP3; format: functional; design: mode of action Inhibitor, recommended concentration 1 uM
T2 sequence (P42574 whole entry): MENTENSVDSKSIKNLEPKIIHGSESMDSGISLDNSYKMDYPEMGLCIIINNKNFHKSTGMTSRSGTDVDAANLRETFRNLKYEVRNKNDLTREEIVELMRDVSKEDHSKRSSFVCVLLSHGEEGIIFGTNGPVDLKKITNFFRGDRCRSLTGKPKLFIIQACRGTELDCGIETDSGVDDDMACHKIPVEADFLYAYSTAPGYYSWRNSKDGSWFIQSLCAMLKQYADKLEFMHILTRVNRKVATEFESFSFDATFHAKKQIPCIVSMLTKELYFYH

Caspase-6 = Caspase-6 (Homo sapiens, UniProt P55212); assay: Affinity Biochemical interaction: (enzymatic assay (fluorogenic substrate cleavage)) EUB0002190aAD CASP6; format: functional; design: mode of action Inhibitor, recommended concentration 1 uM
Caspase-8 = Caspase-8 (Homo sapiens, UniProt Q14790); assay: Affinity Biochemical interaction: (enzymatic assay (fluorogenic substrate cleavage)) EUB0002190aAD CASP8; format: functional; design: mode of action Inhibitor, recommended concentration 1 uM
Caspase-8, sequence (Q14790 217-374 limits assumed): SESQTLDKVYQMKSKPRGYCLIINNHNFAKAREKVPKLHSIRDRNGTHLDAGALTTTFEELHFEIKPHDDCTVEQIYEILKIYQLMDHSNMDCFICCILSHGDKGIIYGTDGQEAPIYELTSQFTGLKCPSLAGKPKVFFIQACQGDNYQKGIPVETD
Caspase-8, sequence (Q14790 385-479 limits assumed): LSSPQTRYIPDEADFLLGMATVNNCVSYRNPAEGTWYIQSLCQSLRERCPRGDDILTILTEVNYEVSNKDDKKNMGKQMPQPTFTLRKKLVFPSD

Caspase-9 = Caspase-9 (Homo sapiens, UniProt P55211); assay: Affinity Biochemical interaction: (enzymatic assay (fluorogenic substrate cleavage)) EUB0002190aAD CASP9; format: functional; design: mode of action Inhibitor, recommended concentration 1 uM
Caspase-9, sequence (P55211 1-315 limits assumed): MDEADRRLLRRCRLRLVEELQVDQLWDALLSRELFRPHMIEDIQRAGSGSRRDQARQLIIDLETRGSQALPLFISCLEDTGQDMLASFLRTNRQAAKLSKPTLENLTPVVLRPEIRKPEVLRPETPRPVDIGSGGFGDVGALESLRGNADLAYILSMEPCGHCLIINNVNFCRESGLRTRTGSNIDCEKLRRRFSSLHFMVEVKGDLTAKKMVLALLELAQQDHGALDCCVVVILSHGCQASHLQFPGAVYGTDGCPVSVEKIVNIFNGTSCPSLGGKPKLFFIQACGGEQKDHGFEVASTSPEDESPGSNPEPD
Caspase-9, sequence (P55211 331-416 limits assumed): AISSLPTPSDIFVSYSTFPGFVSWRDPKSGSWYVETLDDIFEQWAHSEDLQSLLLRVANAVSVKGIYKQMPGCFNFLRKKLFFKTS

[7] = molecular target: T3, Histone acetyltransferase KAT6A (Homo sapiens, UniProt Q92794); assay: Affinity Biochemical interaction: (AlphaScreen) EUB0001094a MYST3; format: functional; design: mode of action Inhibitor, recommended concentration 1 uM
[8] = molecular target: T3, Histone acetyltransferase KAT6A; assay: Affinity Biochemical interaction: (SPR) EUB0001094a MYST3; design: mode of action Inhibitor, recommended concentration 1 uM
[9] = molecular target: T4, Histone acetyltransferase KAT7 (Homo sapiens, UniProt O95251); assay: Affinity Biochemical interaction: (AlphaScreen) EUB0001094a MYST2; format: functional; design: mode of action Inhibitor, recommended concentration 1 uM
T4 sequence (O95251 whole entry): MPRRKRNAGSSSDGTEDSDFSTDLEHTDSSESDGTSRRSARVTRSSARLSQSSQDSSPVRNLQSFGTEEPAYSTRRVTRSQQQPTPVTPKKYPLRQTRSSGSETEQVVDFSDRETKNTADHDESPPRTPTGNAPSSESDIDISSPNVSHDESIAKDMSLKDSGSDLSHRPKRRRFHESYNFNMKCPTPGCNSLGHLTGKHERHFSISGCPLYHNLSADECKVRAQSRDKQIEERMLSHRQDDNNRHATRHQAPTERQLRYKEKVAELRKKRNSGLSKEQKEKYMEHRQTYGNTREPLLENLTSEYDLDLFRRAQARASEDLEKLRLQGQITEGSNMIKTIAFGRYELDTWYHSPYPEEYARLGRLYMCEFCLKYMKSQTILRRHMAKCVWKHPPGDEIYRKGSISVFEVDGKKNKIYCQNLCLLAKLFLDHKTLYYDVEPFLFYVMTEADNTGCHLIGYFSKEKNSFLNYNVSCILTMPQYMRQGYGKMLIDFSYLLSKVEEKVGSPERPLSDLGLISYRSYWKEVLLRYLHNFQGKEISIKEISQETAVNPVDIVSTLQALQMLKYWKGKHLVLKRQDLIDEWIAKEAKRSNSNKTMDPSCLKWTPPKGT

[10] = molecular target: T4, Histone acetyltransferase KAT7; assay: Affinity Biochemical interaction: (SPR) EUB0001094a MYST2; design: mode of action Inhibitor, recommended concentration 1 uM
[11] = Affinity Biochemical interaction: (inhibition of enzyme activity, competitive binding assay (fluorescent substrate cleavage)) EUB0002137aAD CAPN2
[12] = molecular target: Monocarboxylate transporter 1 (Homo sapiens, UniProt P53985); assay: Affinity Biochemical interaction: (Displacement of radiolabelled [3H]-BAY-8002) EUB0001677b SLC16A1; design: mode of action Inhibitor, recommended concentration 1 uM
Monocarboxylate transporter 1, sequence (P53985 whole entry): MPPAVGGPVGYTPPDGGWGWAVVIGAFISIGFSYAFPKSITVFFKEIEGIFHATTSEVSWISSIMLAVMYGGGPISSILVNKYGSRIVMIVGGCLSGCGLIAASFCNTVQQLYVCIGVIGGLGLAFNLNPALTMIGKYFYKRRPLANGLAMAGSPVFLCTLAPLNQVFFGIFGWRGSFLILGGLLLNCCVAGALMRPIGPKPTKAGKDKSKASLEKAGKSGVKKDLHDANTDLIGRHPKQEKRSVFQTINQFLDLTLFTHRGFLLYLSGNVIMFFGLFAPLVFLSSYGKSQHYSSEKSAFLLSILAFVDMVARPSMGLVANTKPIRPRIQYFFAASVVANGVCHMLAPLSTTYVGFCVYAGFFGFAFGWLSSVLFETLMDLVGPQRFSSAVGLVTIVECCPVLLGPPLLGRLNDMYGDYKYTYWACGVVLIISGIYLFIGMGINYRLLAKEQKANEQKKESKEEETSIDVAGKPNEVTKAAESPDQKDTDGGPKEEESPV

[13] = molecular target: Calpain-2 catalytic subunit (Homo sapiens, UniProt P17655); assay: Affinity Biochemical interaction: (Colorimetric assay, lysis of casein substrate and analysis of protease inhibition by reading wavelength at 595 nm) EUB0002195a CAPN2; format: functional; design: mode of action Inhibitor, recommended concentration 1 uM
Cathepsin B = Cathepsin B (Homo sapiens, UniProt P07858); assay: Affinity Biochemical interaction: (Colorimetric assay, lysis of casein substrate and analysis of protease inhibition by reading wavelength at 595 nm) EUB0002195a CTSB; format: functional; design: mode of action Inhibitor, recommended concentration 1 uM
Procathepsin L = Procathepsin L (Homo sapiens, UniProt P07711); assay: Affinity Biochemical interaction: (Colorimetric assay, lysis of casein substrate and analysis of protease inhibition by reading wavelength at 595 nm) EUB0002195a CTSL; format: functional; design: mode of action Inhibitor, recommended concentration 1 uM
[14] = molecular target: T5, Bromodomain-containing protein 2 (Homo sapiens, UniProt P25440); assay: (§1) Affinity Biochemical interaction: (BROMOscan assay) EUB0002282a BRD2; design: mode of action Inhibitor, recommended concentration 1 uM
T5 sequence (P25440 whole entry): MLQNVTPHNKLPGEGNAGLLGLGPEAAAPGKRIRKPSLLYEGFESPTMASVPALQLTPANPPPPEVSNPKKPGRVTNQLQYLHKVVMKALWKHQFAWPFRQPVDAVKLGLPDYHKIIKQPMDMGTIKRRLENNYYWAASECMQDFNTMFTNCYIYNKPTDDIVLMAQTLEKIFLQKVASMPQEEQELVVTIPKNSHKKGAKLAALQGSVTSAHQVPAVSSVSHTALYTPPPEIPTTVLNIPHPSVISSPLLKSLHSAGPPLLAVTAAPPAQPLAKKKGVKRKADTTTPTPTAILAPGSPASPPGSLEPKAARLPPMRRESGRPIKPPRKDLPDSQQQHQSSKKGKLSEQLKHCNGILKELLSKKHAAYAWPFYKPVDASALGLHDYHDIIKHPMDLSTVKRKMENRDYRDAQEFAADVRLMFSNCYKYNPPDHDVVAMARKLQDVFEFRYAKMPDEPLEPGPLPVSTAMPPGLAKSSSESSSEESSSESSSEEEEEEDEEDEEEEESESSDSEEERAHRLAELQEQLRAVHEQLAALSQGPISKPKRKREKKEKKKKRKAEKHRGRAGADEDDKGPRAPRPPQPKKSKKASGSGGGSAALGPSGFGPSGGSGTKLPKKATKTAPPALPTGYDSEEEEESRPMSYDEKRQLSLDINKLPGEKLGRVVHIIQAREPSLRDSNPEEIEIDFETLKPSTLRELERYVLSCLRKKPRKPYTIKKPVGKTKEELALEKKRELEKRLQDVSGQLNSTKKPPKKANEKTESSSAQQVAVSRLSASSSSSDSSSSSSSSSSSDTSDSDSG

[15] = molecular target: T5, Bromodomain-containing protein 2; assay: as §1; design: mode of action Inhibitor, recommended concentration 1 uM; remark: listed apart in the source
[16] = molecular target: T6, Bromodomain-containing protein 3 (Homo sapiens, UniProt Q15059); assay: (§2) Affinity Biochemical interaction: (BROMOscan assay) EUB0002282a BRD3; design: mode of action Inhibitor, recommended concentration 1 uM
T6 sequence (Q15059 whole entry): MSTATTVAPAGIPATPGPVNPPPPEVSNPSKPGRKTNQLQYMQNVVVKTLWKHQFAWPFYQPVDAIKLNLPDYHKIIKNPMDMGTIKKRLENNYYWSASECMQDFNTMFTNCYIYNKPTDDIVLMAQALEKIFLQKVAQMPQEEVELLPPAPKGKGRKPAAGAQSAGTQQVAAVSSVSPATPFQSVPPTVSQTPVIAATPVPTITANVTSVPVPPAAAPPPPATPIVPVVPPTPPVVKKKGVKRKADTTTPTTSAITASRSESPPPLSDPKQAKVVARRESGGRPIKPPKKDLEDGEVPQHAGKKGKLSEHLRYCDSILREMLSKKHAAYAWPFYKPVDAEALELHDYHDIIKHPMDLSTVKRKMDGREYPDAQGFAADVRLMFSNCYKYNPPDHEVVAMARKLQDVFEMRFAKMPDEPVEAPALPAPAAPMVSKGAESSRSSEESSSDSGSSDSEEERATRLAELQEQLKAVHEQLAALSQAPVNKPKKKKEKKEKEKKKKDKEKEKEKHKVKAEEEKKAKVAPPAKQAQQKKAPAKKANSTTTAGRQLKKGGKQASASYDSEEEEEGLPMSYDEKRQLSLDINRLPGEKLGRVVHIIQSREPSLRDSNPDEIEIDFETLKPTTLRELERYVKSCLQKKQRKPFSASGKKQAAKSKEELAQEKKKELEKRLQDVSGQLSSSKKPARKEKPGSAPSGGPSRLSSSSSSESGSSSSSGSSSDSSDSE

[17] = molecular target: T6, Bromodomain-containing protein 3; assay: as §2; design: mode of action Inhibitor, recommended concentration 1 uM; remark: listed apart in the source
[18] = molecular target: T7, Bromodomain-containing protein 4 (Homo sapiens, UniProt O60885); assay: (§3) Affinity Biochemical interaction: (AlphaLISA) EUB0002282a BRD4; format: functional; design: mode of action Inhibitor, recommended concentration 1 uM
[19] = molecular target: T7, Bromodomain-containing protein 4; assay: as §3; format: functional; design: mode of action Inhibitor, recommended concentration 1 uM; remark: listed apart in the source
[20] = molecular target: Bromodomain testis-specific protein (Homo sapiens, UniProt Q58F21); assay: Affinity Biochemical interaction: (BROMOscan assay) EUB0002282a BRDT; design: mode of action Inhibitor, recommended concentration 1 uM
[21] = molecular target: T8, Chromobox protein homolog 7 (Homo sapiens, UniProt O95931); assay: Affinity Biochemical interaction: (ITC) EUB0001090a CBX7; design: mode of action Inhibitor, recommended concentration 1 uM
T8 sequence (O95931 whole entry): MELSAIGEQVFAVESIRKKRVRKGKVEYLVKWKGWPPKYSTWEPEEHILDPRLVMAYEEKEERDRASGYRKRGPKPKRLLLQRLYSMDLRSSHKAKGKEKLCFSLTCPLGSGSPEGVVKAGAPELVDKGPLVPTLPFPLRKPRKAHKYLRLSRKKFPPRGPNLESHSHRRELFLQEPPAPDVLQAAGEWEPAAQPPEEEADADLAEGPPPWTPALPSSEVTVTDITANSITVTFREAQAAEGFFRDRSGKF

[22] = molecular target: T8, Chromobox protein homolog 7; assay: Affinity Biochemical interaction: (SPR) EUB0001090a CBX7; design: mode of action Inhibitor, recommended concentration 1 uM
[23] = molecular target: T8, Chromobox protein homolog 7; assay: Affinity Biochemical interaction: (AlphaScreen) EUB0001090a CBX7; format: functional; design: mode of action Inhibitor, recommended concentration 1 uM
[24] = molecular target: Protein arginine N-methyltransferase 5 (Homo sapiens, UniProt O14744); assay: Affinity Biochemical interaction: (SPR) EUB0002223a PRMT5; design: mode of action Inhibitor, recommended concentration 1 uM
[25] = molecular target: Protein arginine N-methyltransferase 7 (Homo sapiens, UniProt Q9NVM4); assay: Affinity Biochemical interaction: (SPR) EUB0002223a PRMT7; design: mode of action Inhibitor, recommended concentration 1 uM
Caspase-3 [26] = molecular target: T2, Caspase-3; assay: (§4) Affinity Biochemical interaction: (enzymatic assay (fluorogenic substrate cleavage)) EUB0002178aAD CASP3; format: functional; design: mode of action Inhibitor, recommended concentration 1 uM
Caspase-3 [27] = molecular target: T2, Caspase-3; assay: as §4; format: functional; design: mode of action Inhibitor, recommended concentration 1 uM; remark: listed apart in the source

SMILES: CCOCC1(COCC)CCC(c2n[nH]cc2CN(C)CCNC)CC1
- IC50 [1]: 38 nM
- Ki [1]: 19 nM
- IC50 [2]: 4.7 nM
- Ki [2]: 2.4 nM
- IC50 [3]: 3.9 nM
- Ki [3]: 2 nM

SMILES: COC(=O)CC[C@H](NC(=O)[C@H](Cc1c[nH]c2ccccc12)NC(=O)OCc1ccccc1)C(=O)N[C@@H](Cc1cnc[nH]1)C(=O)N[C@@H](CC(=O)OC)C(=O)CF (Cbz-WE(OMe)HD(OMe)-CH2F)
- IC50 (Caspase-5): 340 nM

SMILES: Cc1nc(F)ccc1-c1cc(Cn2ccn(C)c2=N)cc(C(=O)NCc2ccc(Cl)c(Cl)c2)c1
- Ki [4]: < 0.001 nM
- Ki [5]: 0.106 nM

SMILES: CC(C)[C@H](NC(=O)[C@H](CCC(=O)O)NC(=O)[C@H](C)NC(=O)OC(C)(C)C)C(=O)N[C@H](C=O)CC(=O)O (Boc-AEVD-aldehyde)
- Ki (Caspase-1): < 12 nM
- Ki (Caspase-3 [6]): 42 nM
- Ki (Caspase-6): 52 nM
- Ki (Caspase-8): 1.6 nM
- Ki (Caspase-9): 48 nM

SMILES: Cc1cc(-c2ccccc2)cc(C(=O)NNS(=O)(=O)c2cccc(O)c2)c1F
- IC50 [7]: 17 nM
- Kd [8]: 7 nM
- IC50 [9]: 30 nM
- Kd [10]: 34 nM

SMILES: CCC(NC(=O)C(CC(C)C)NC(=O)OCc1ccccc1)C(=O)C(=O)NCCCN1CCOCC1 (stereo not drawn)
- Ki [11]: 41 nM

SMILES: O=C(Nc1ccccc1C(=O)O)c1cc(S(=O)(=O)c2ccccc2)ccc1Cl
- IC50 [12]: 11 nM
- Ki [12]: 5.02 nM

SMILES: CC(C)C[C@@H](C=O)NC(=O)[C@@H](NS(=O)(=O)c1ccc(F)cc1)C(C)C
- IC50 [13]: 78 nM
- IC50 (Cathepsin B): 15 nM
- IC50 (Procathepsin L): 1.6 nM

SMILES: Cc1cc(-c2ccc3nc(C4CCOCC4)n(CCOC(F)(F)F)c3c2)cn(C)c1=O
- Kd [14]: 3.2 nM
- Kd [15]: 5.2 nM
- Kd [16]: 2.3 nM
- Kd [17]: 2.9 nM
- Kd [18]: 6.5 nM
- Kd [19]: 7.6 nM
- Kd [20]: 3.1 nM

SMILES: COC(=O)[C@H](CO)NC(=O)[C@H](CCCCN(C)C1CC2CCC1C2)NC(=O)[C@H](CC(C)C)NC(=O)[C@H](C)NC(=O)[C@H](Cc1ccccc1)NC(=O)c1ccc(C(C)(C)C)cc1 (stereo partly drawn) ({Benzoyl(4-tBu)}-FAL[Lys(Me,2-norbornyl)]S-OMe)
- Kd [21]: 59 nM
- Kd [22]: 53.8 nM
- IC50 [23]: 20 nM

SMILES: CCNC(=O)NCCSC[C@H]1O[C@@H](n2cnc3c(N)ncnc32)[C@H](O)[C@@H]1O
- IC50 [24]: 25000 nM
- IC50 [25]: 37000 nM

SMILES: CC[C@H](C)[C@H](NC(=O)[C@H](CCC(=O)O)NC(=O)[C@@H](NC(C)=O)C(C)C)C(=O)N[C@H](C=O)CC(=O)O (Ac-VEID-aldehyde)
- IC50 (Caspase-3 [26]): 13.6 nM
- IC50 (Caspase-3 [27]): 480 nM

— ChEMBL document CHEMBL5723035, “Affinity Biochemical Literature for EUbOPEN Chemogenomic Library” (2024)
